# Laboratory results: patent US20090028925A1, “Novel Phosphinic Acid-Containing Thyromimetics” (priority 2005, published 2009)
# Where two headings read alike, the source gives them in different places.
# Experiments:
# plasma cholesterol = experiment: Cholesterol lowering in hypercholesterolemic rats; assay type: in vivo; details: for change in vivo at 0.5 mg/kg/day: Rattus norvegicus, po, read-out: % Cholesterol Lowering; for cholesterol lowering: 0.5 mg/kg/d orally
# [1] = biological target: T1, human thyroid hormone receptors TRα1 (Homo sapiens, UniProt P10827); experiment: Receptor binding to TRα1 (gel filtration and scintillation proximity assay, labeled T3); details: read-out: Ki TRα
# T1 construct: made in house; host or cells: Sf9 insect cells (baculovirus)
# T1 sequence (P10827 1-410 isoform P10827-2): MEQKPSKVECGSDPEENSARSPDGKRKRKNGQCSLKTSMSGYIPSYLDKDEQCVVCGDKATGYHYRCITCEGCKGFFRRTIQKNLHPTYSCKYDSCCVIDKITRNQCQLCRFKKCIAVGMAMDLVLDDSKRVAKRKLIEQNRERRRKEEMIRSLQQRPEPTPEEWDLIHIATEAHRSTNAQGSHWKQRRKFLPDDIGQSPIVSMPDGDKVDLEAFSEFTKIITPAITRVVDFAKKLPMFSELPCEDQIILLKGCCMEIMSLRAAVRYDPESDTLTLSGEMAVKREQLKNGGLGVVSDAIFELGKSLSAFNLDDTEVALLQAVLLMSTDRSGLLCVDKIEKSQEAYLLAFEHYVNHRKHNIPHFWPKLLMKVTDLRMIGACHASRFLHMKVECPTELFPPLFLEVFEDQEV
# T1 sequence (P19793 1-462 partner): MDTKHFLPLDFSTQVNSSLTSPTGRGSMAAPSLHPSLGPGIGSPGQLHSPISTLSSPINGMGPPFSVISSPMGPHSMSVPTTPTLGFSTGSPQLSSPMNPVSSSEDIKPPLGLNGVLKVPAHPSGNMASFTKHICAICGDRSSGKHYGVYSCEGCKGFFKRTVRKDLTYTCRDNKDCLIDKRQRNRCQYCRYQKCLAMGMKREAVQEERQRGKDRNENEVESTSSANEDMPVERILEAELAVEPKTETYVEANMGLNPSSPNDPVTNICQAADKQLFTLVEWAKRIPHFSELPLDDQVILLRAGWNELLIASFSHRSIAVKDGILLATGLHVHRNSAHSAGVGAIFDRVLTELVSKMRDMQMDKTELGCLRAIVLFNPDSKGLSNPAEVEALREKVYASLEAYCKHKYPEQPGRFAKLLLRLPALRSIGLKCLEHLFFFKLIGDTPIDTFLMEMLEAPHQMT
# Experimental: (§1) Methods: Baculoviruses expressing TRα1, TRβ1 and RXRα were generated using cDNA and other reagents from Invitrogen (Carlsbad, Calif.). To produce TR/RXR heterodimer proteins, the sf9 insect cells were first grown to a density of 1-5×10^5 cells/mL. […] and RXRα baculovirus stocks were added to the cell culture with a ratio of 1 to 1 (multiplicity of infection=10). The cells were harvested three days after the infection.
# (§2) Binding of compounds to either the TRα1 or TRβ1 were also performed by means of scintillation proximity assays (SPA). The SPA assay, a common method used for the quantitation of receptor-ligand equilibria, makes use of special beads coated with a scintillant and a capture molecule, copper, which binds to the histidine-tagged α or β receptor.
# [2] = biological target: T2, human thyroid hormone receptors TRβ1 (Homo sapiens, UniProt P10828); experiment: Receptor binding to TRβ1 (gel filtration and scintillation proximity assay, labeled T3); details: read-out: Ki TRβ
# T2 construct: made in house; host or cells: Sf9 insect cells (baculovirus)
# T2 sequence (P10828 1-461): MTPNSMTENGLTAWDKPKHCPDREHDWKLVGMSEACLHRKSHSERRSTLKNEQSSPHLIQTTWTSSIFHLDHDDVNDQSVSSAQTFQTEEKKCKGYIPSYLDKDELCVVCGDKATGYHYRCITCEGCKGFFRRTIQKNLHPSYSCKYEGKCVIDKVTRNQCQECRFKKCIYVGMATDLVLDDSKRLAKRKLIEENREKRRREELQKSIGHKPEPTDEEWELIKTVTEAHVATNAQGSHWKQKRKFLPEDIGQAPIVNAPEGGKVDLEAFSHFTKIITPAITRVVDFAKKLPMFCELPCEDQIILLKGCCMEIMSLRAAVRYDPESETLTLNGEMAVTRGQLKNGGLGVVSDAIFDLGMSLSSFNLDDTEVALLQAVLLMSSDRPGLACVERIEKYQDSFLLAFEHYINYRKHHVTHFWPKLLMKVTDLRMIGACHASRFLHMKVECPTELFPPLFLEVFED
# T2 sequence (P19793 1-462 partner): T1 sequence (P19793 1-462 partner)
# Experimental: as §1, §2
# [3] = delivered p.o. (0.5 mg/kg/d), percentage change from pre-dose cholesterol
Structure (SMILES),change in vivo at 0.5 mg/kg/day (plasma cholesterol; [3]),Ki ([1]; SPA data),Ki ([2]; SPA data),other results
"CC(C)c1cc(Oc2c(Br)cc(C[P@@]3(=O)OCC[C@@H](c4cccc(Cl)c4)O3)cc2Br)ccc1O [Compound 13-9, Cis-(S)-2-[3,5-dibromo-4-(4′-hydroxy-3′-iso-propylphenoxy)benzyl]-4-(3-chlorophenyl)-2-oxo2λ^5-[1,3,2]-dioxaphosphonane]",-10.9%,–,–,cholesterol lowering (plasma cholesterol; hypercholesterolemic rats): failed to demonstrate cholesterol lowering
"CC(C)c1cc(Cc2c(Cl)cc(OC[P@@]3(=O)OCC[C@@H](c4cccc(Cl)c4)O3)cc2Cl)ccc1O (relative stereo) [Compound 13-11, Cis(S)-2-[(3,5-dichloro-4-(4′-hydroxy-3′-iso-propylbenzyl)phenoxy)methyl]-4-(3-chlorophenyl)-2-oxo-2λ^5-[1,3,2]-dioxaphosphonane]",–,–,–,% Cholesterol Lowering (plasma cholesterol; [3]): −24.8%
CCOC(=O)[C@H](C)NP(=O)(COc1cc(I)c(Oc2ccc(O)c(C(C)C)c2)c(I)c1)N[C@@H](C)C(=O)OCC [Compound 15-8],-31.1%,–,–,–
"CCOP(=O)(Cc1cc(Br)c(Oc2ccc(O)c(C(C)C)c2)c(Br)c1)OCC [Compound 19-1, diethyl[3,5-dibromo-4-(4′-hydroxy-3′-iso-propylphenoxy)]benzylphosphonate]",–,–,–,change in vivo at 0.5 mg/kg/day (plasma cholesterol): -6.6%; cholesterol lowering (plasma cholesterol; hypercholesterolemic rats): failed to demonstrate cholesterol lowering
"CC(C)c1cc(Oc2c(I)cc(OCP(=O)(OCOC(=O)C(C)(C)C)OCOC(=O)C(C)(C)C)cc2I)ccc1O [Compound 12-7, Di(pivaloyloxymethyl)[3,5-diiodo-4-(4′-hydroxy-3′-iso-propylphenoxy)phenoxy]methylphosphonate]",–,–,–,% Cholesterol Lowering (plasma cholesterol; [3]): −39.1%
"CCC(C)c1cc(Cc2c(C)cc(OC[P@@]3(=O)OCC[C@@H](c4cccc(Cl)c4)O3)cc2C)ccc1O (stereo partly drawn) [Compound 13-8, Cis-(S)-2-[(3,5-dimethyl-4-(4′-hydroxy-3′-sec-butylbenzyl)phenoxy)methyl]-4-(3-chlorophenyl)-2-oxo-2λ^5-[1,3,2]-dioxaphosphonane]",-26.5%,–,–,–
"CCOC(=O)[C@H](C)NP(=O)(Cc1cc(Br)c(Oc2ccc(O)c(C(C)C)c2)c(Br)c1)N[C@@H](C)C(=O)OCC [Compound 15-5, di-N-(L-1-ethoxycarbonylethylamino)[3,5-dibromo-4-(4′-hydroxy-3′-iso-propylphenoxy)benzyl]phosphonamide]",-29.9%,–,–,cholesterol lowering (plasma cholesterol; hypercholesterolemic rats): demonstrated a significant lowering of cholesterol
Cc1cc(OC[P@@]2(=O)OCC[C@@H](c3cccc(Br)c3)O2)cc(C)c1Cc1ccc(O)c(C(C)C)c1 [cis-13-2],–,–,–,"efficacy in lowering cholesterol (plasma cholesterol; another experiment, hypercholesterolemic rats): not efficacious"
"CC(C)c1cc(Oc2c(Br)cc(CP(=O)(OCOC(=O)C(C)(C)C)OCOC(=O)C(C)(C)C)cc2Br)ccc1O [Compound 12-5, Di-(pivaloyloxymethyl)[3,5-dibromo-4-(4′-hydroxy-3′-iso-propylphenoxy)benzyl]phosphonate]",-32.5%,–,–,cholesterol lowering (plasma cholesterol; hypercholesterolemic rats): demonstrated a significant lowering of cholesterol
"COc1cc(CCP(=O)(O)O)cc(OC)c1Cc1ccc(O)c(C(C)C)c1 [Compound 24, 2-[3,5-dimethoxy-4-(4′-hydroxy-3′-isopropylbenzyl)phenyl]ethylphosphonic acid]",–,> 2000 nM,> 2000 nM,–
"Cc1cc(OCP(=O)(O)O)cc(C)c1Cc1ccc(O)c(C(=O)O)c1 [Compound 35, [3,5-dimethyl-4-(3′-carboxyl-4′-hydroxy-benzyl)phenoxy]methylphosphonic acid]",–,> 2000 nM,> 2000 nM,–
CC(C)c1cc(Oc2c(I)cc(OC[P@@]3(=O)OCC[C@@H](c4cccc(Cl)c4)O3)cc2I)ccc1O [Compound 13-10],-25.8%,–,–,–
"Cc1cc(OC[P@]2(=O)OCC[C@@H](c3cccc(Br)c3)O2)cc(C)c1Cc1ccc(O)c(C(C)C)c1 [Compound 13-2-trans, 2-[(3,5-dimethyl-4-(4′-hydroxy-3′-iso-propylbenzyl)phenoxy)methyl]-4-(3-bromophenyl)-2-oxo-2λ^5-[1,3,2]-diox aphosphonane]",–,1350 nM,469 nM,–
"O=P(O)(O)CCc1cc(I)c(Oc2ccc(O)c(I)c2)c(I)c1 [Compound 3, 2-[3,5-diiodo-4-(4′-hydroxy-3′-iodophenoxy)phenyl]ethylphosphonic acid]",–,46 nM,5.42 nM,–
"Cc1cc(OC[P@]2(=O)OCC[C@@H](c3cccnc3)O2)cc(C)c1Cc1ccc(O)c(C(C)C)c1 [Compound 13-4-trans, 2-[(3,5-dimethyl-4-(4′-hydroxy-3′-iso-propylbenzyl)phenoxy)methyl]-4-(pyrid-3-yl)-2-oxo-2λ^5-[1,3,2]-dioxaphosphonane]",–,2130 nM,1810 nM,–
"CCOC(=O)[C@H](C)NP(=O)(COc1cc(C)c(Cc2ccc(O)c(C(C)CC)c2)c(C)c1)N[C@@H](C)C(=O)OCC (stereo partly drawn) [Compound 15-4, di-N-(L-1-ethoxycarbonylethylamino)[3,5-dimethyl-4-(4′-hydroxy-3′-sec-butylbenzyl)phenoxy]methylphosphonamide]",-39.6%,–,–,–
"CCC(C)c1cc(Cc2c(C)cc(OCP(=O)(OCOC(=O)C(C)(C)C)OCOC(=O)C(C)(C)C)cc2C)ccc1O (stereo not shown) [Compound 12-4, Di-(pivaloyloxymethyl)[3,5-dimethyl-4-(4′-hydroxy-3′-sec-butylbenzyl)phenoxy]methylphosphonate]",-30.5%,–,–,–
"Cc1cc(OCCP(=O)(O)O)cc(C)c1Cc1ccc(O)c(C(C)C)c1 [Compound 26, 2-[3,5-dimethyl-4-(3′-iso-propyl-4′-hydroxybenzyl)phenoxy]ethylphosphonic acid]",–,–,–,Ki [1]: 594 nM; Ki [2]: 87 nM
"O=P(O)(O)Cc1cc(Cl)c(Oc2ccc(O)c(S(=O)(=O)N3CCCCC3)c2)c(Cl)c1 [Compound 9, 3,5-dichloro-4-[4′-hydroxy-3′-(N-piperidinylsulfonamido)phenoxy]benzylphosphonic acid]",–,350 nM,204 nM,–
Cc1cc(OC[P@]2(=O)OCC[C@@H](c3cc(Cl)cc(Cl)c3)O2)cc(C)c1Cc1ccc(O)c(C(C)C)c1 [Compound 13-7-trans],–,1550 nM,3800 nM,–
"CC(C)c1cc(Cc2c(Cl)cc(C(=O)CP(=O)(O)O)cc2Cl)ccc1F [Compound 41-3, 2-[3,5-dichloro-4-(4-fluoro-iso-propyl-benzyl)-phenyl]-2-oxo-ethylphosphonic acid]",–,> 2000 nM,280 nM,–
"Cc1cc(OC[P@]2(=O)OCC[C@@H](c3ccc(Cl)cc3)O2)cc(C)c1Cc1ccc(O)c(C(C)C)c1 [Compound 13-6-trans, 2-[(3,5-dimethyl-4-(4′-hydroxy-3′-iso-propylbenzyl)phenoxy)methyl]-4-(4-chlorophenyl)-2-oxo-2λ^5-[1,3,2]-dioxaphosphonane]",–,1530 nM,1570 nM,–
"Cc1cc(OCP(=O)(O)O)cc(C)c1Cc1ccc(O)c(S(=O)(=O)C(C)C)c1 [Compound 44, [3,5-dimethyl-4-[4′-hydroxy-3′-(iso-propylsulfonyl)benzyl]phenoxy]methylphosphonic acid]",–,832 nM,44 nM,–
"Cc1cc(OC[P@]2(=O)OCC[C@@H](c3ccncc3)O2)cc(C)c1Cc1ccc(O)c(C(C)C)c1 [Compound 13-5-trans, 2-[(3,5-dimethyl-4-(4′-hydroxy-3′-iso-propylbenzyl)phenoxy)methyl]-4-(pyrid-4-yl)-2-oxo-2λ^5-[1,3,2]-dioxaphosphonane]",–,354 nM,281 nM,–
